From PMC6615598, “Novel antibiotics effective against gram-positive and -negative multi-resistant bacteria with limited resistance” (PLoS Biology, 2019)
Read-outs that look alike come from different tables or passages of the source. Starred links: 1 amine or outer side, 2 acyl side, 3 side chain; linkers in the order of their positions; H or OH if unused. Non-standard residues stand in square brackets, D forms with d. Residues, ends and D or L forms follow the SMILES beside them. azaβ3(1Nal) = O=C(CN(Cc1cccc2ccccc12)N[*:1])[*:2]

What was measured:
[1] = test system: Enterobacter cloacae ATCC13047; settings: ATCC13047
Protocol: (§1) (10−4 M final concentrations). At selected time intervals, 100 μl of reaction mixture was collected, quenched by 200 μl 95% EtOH, and adjusted at pH 2 to prevent peptide adsorption to serum proteins. […] Supernatants were analyzed by RP-HPLC on an Xbridge C18 column with a linear gradient of water, 0.08% TFA, and acetonitrile with 1% TFA. HPLC peak areas were used to calculate the percentages of intact compound remaining at the various time points. MIC and MBC values were determined in triplicate in many ESKAPE clinical isolates, including a dozen MDR S. aureus, by the broth microdilution method. Peptidomimetics and antibiotics were assayed in a concentration range of 1 to 128 μM. The bacterial inoculum (5 × 10^5 colony-forming units [CFUs]/well) was prepared in MHB or CAMHB (150 μl). A Biotek Synergy 2 spectrophotometer was used to record the results after 18–20 h incubation at 35°C (±2°C). […] After every hour of culture for 4 h, serial dilutions were plated on BHI plates and incubated overnight at 37°C, and then the CFUs were counted and expressed as log CFU/ml. Phosphate-buffered saline (PBS)-exposed S. aureus MRSA was included as a control.

[2] = test system: Escherichia coli 13090
Protocol: as §1

[3] = test system: Escherichia coli 146; settings: 146
Protocol: as §1

[4] = test system: A. baumanii 7985
Protocol: as §1

[5] = test system: Escherichia coli K12; settings: K12
Protocol: as §1

[6] = test system: P. aeruginosa 15643
Protocol: as §1

[7] = test system: Escherichia coli 293; settings: 293
Protocol: as §1

[8] = test system: Escherichia coli MCR−1; settings: MCR−1
Protocol: as §1

[9] = test system: Escherichia coli 066; settings: 066
Protocol: as §1

[10] = test system: P. aeruginosa 15637; settings: 15637
Protocol: as §1

[11] = test system: P. aeruginosa 15641; settings: 15641
Protocol: as §1

[12] = test system: Escherichia coli 508
Protocol: as §1

[13] = test system: Escherichia coli ML35P; settings: E. coli ML35P; broth microdilution; 3 independent experiments
Protocol: as §1

[14] = test system: P. aeruginosa 15638
Protocol: as §1

[15] = test system: K. pneumoniae 13829; settings: 13829
Protocol: as §1

[16] = test system: P. aeruginosa PA14; settings: PA14
Protocol: as §1

[17] = test system: Escherichia coli 750
Protocol: as §1

[18] = test system: Escherichia coli PV; settings: PV
Protocol: as §1

[19] = test system: K. pneumoniae 13825
Protocol: as §1

[20] = test system: Escherichia coli 283; settings: 283
Protocol: as §1

[21] = test system: Escherichia coli 758; settings: 758
Protocol: as §1

[22] = test system: A. baumanii 11896
Protocol: as §1

[23] = test system: E. faecium Aus0004
Protocol: as §1

[24] = test system: Escherichia coli 444; settings: 444
Protocol: as §1

[25] = test system: P. aeruginosa 15644
Protocol: as §1

[26] = test system: MRSA; test: Mild sepsis mouse model, survival; type: in vivo; settings: mice, approximately 5 × 10^8 MRSA IV; single IV 1.5 mg.kg^−1 at 3 h or 15 h post infection; 14 d
Text: Tolerance and toxicity studies were done on male Swiss mice (CD-1 Crl: CD-1 [ICR] IGS; Charles River). These were 7 to 10 weeks old and weighed an average of 37.2 g. All experimental protocols were approved by the Adaptive Therapeutics Animal Care and Use Committee (APAFiS #4508-2016031l15541258 v2). For the sepsis model, we used female Swiss mice (Janvier Labs), 6 to 8 weeks old and weighing approximately 30 g. Experiments were monitored in the ARCHE-BIOSIT animal lab in Rennes, in biological duplicate. We used Groups of 5 mice for the mild and the severe sepsis models with MRSA. Mice were IV inoculated with 150 μl of MRSA suspensions in 0.9% NaCl containing approximately 5 × 10^8 CFUs for the “mild” sepsis and approximately 2 × 10^9 CFUs for the “severe” sepsis, respectively. […] Mice survival was monitored for 4 d (“severe” sepsis) or 14 d (“mild” sepsis), and the statistical significance of difference(s) between the groups was evaluated using the Wilcoxon test. P < 0.05 was considered significant. Two weeks (“mild” sepsis) or 4 d (“severe” sepsis) after inoculation, mice were euthanized with CO2.

[27] = Stability in human serum (half-life); type: in vitro ADME; settings: 25% human serum, pre-incubated 15 min at 37°C, peptide 10^−4 M, RP-HPLC peak areas, mean of biological triplicates
Protocol: as §1
Supplementary file pbio.3000337.s013.docx: S7 Table Peptide half-lives in human and mouse sera. […] Peptide amounts and half-lives were determined by HPLC. Experiments were conducted on 25% human or mouse sera. Values are shown in minutes. The mean values correspond to biological triplicates. HPLC, high pressure liquid chromatography. (DOCX) Click here for additional data file.

[28] = test system: S. aureus MRSA; test: Time-kill assay at 30-fold MIC; type: cell-based; settings: 4 h
Protocol: as §1

Row | Compound | MIC [1] | MIC [3] | MIC [4] | MIC [5] | MIC [7] | MIC [8] | MIC [9] | MIC [10] | MIC [11] | MIC [13] | MIC [15] [µM] | MIC [16] | MIC [18] | MIC [20] | MIC [21] | MIC [22] | MIC [24] | Survival in mild sepsis [26] | half-life [27] [h] | Bactericidal activity in time-kill curves [28] | also measured
1 | CC(C)[C@@H]1NC(=O)[C@H](CCCNC(=N)N)NC(=O)[C@H](CCCNC(=N)N)NC(=O)[C@H](Cc2c[nH]c3ccccc23)NC(=O)[C@H](Cc2ccccc2)NC(=O)[C@H](Cc2ccccc2)NC(=O)[C@H](CCCCN)NC1=O [Pep18] (cyclo(FFWRRVK)) | 128 (131.2) μM | 32 (32.8) μM | >128 µM | 16 (16.4) μM | 32 (32.8) μM | 32 (32.8) μM | 32 (32.8) μM | 8 (8.2) μM | 32 (32.8) μM | 16 (16.4) μM | >128 | 8 (8.2) μM | 32 (32.8) μM | 32 (32.8) μM | 32 (32.8) μM | >128 µM | 32 (32.8) μM | no effect | 16.3 ± 1.67 | higher bactericidal activities than vancomycin | MIC ([2]; E. coli 13090, clinical strain, Caen hemoculture, broth microdilution, 3 independent experiments): 16 (16.4) μM; MIC ([6]; P. aeruginosa 15643, clinical strain, Caen hemoculture, broth microdilution, 3 independent experiments): 16 (16.4) μM; MIC ([12]; E. coli 508, clinical strain, Rennes urinary catheter, broth microdilution, 3 independent experiments): 64 (65.6) μM; MIC ([14]; P. aeruginosa 15638, clinical strain, Caen hemoculture, broth microdilution, 3 independent experiments): 64 (65.6) μM; MIC ([17]; E. coli 750, clinical strain, Rennes urinary catheter, broth microdilution, 3 independent experiments): 16 (16.4) μM; MIC ([19]; K. pneumoniae 13825, clinical strain, Caen hemoculture, broth microdilution, 3 independent experiments): 16 (16.4) μM; MIC ([23]; E. faecium Aus0004, broth microdilution, 3 independent experiments): 64 (65.6) μM; MIC ([25]; P. aeruginosa 15644, clinical strain, Caen hemoculture, broth microdilution, 3 independent experiments): 64 (65.6) μM
2 | CC(C)[C@@H]1NC(=O)[C@H](CCCNC(=N)N)NC(=O)[C@H](CCCNC(=N)N)NC(=O)CN(Cc2cccc3ccccc23)NC(=O)[C@H](Cc2ccccc2)NC(=O)CN(Cc2cccc3ccccc23)NC(=O)[C@H](CCCCN)NC1=O [Pep19] (cyclo([azaβ3(1Nal)]F[azaβ3(1Nal)]RRVK)) | 16 (18) μM | 8 (9) μM | 8 (9) μM | 4 (4.5) μM | 16 (18) μM | 16 (18) μM | 8 (9) μM | 8 (9) μM | 16 (18) μM | 4 (4.5) μM | >128 | 8 (9) μM | 8 (9) μM | 8 (9) μM | 8 (9) μM | 8 (9) μM | 8 (9) μM | survived better than those without treatment | 24.2 ± 4.33 | higher bactericidal activities than vancomycin | MIC [2]; 13090: 4 (4.5) μM; MIC [6]; 15643: 8 (9) μM; MIC [12]; 508: 8 (9) μM; MIC [14]; 15638: 16 (18) μM; MIC [17]; 750: 8 (9) μM; MIC [19]; 13825: 8 (9) μM; MIC ([23]; Aus0004): 8 (9) μM; MIC [25]; 15644: 16 (18) μM
